In patent US20130165472A1, “HETEROARYLS AND USES THEREOF” (MILLENNIUM PHARMACEUTICALS, INC., priority 2011, published 2013):
pIC50: −log10 of the molar value.

Biological target: T1, VPS34 (Homo sapiens, UniProt Q8NEB9)
T1 construct: GST (N); host or cells: SF9 insect cells (baculovirus)
Experiment: Human VPS34 enzyme assay (Adapta TR-FRET)
Assay type: biochemical
Conditions: for VPS34 Percent Inhibition: at a 1.11 μM concentration
Protocol: VPS34 (accession number GB:BC033004) was cloned into pDEST20-Thombin as N-terminal GST tagged fusion proteins using the Gateway system (Invitrogen, catalog#11804-013). The sequences were verified before recombinant protein expression using the Baculovirus Expression System with Gateway® Technology.
For expression VPS34 was infected at 1MOI in SF9 cells and harvested 72 hours post infection.
For purification, VPS34 is purified by Glutathione Sepharose 4 Fast Flow (GE Healthcare #17-5132-03) followed by HiTrap Q (GE Healthcare #17-1153-01).
Human VPS34 Enzyme Assay Method
100 mL compounds in DMSO are added to wells of a 384 well microtitre plate (Greiner 780076). At room temperature: 5 ul VPS34 reaction buffer (Invitrogen Assay Buffer Q (diluted 1 in 5 with nanopure water) plus 2 mM DTT and 2 mM MnCl2) containing ATP (20 uM, Promega) and 200 uM PI-PS substrate (Invitrogen PV5122) is added followed immediately by 5 ul VPS34 reaction buffer (as above) containing VPS34 (5 nM, Millennium Protein Sciences Group) and the mixture is incubated with shaking at room temperature for 1 hour. Then 5 ul VPS34 stop-detect mix (as per Invitrogen Adapta Assay kit (PV5009) instructions (contains kinase quench buffer, TR-FRET buffer, Adapta Eu anti-ADP antibody and Alexa Fluor 647 ADP tracer)) is added to quench the reaction. The plates are then incubated for 30 minutes at room temperature with shaking and then read on a BMG PheraStar Plus reader.
For the assay methods described above, test compound percent inhibition, at various concentrations, is calculated relative to control (DMSO and EDTA) treated samples. Compound concentration versus percent inhibition curves are fitted to generate IC50 values. One skilled in the art will appreciate that the values generated either as percentage inhibition at a single concentration or IC50 values are subject to experimental variation.
3) VPS34 is assayed using Adapta™ Universal Kinase Assay Kit (Invitrogen).

T1 sequence (Q8NEB9 whole entry): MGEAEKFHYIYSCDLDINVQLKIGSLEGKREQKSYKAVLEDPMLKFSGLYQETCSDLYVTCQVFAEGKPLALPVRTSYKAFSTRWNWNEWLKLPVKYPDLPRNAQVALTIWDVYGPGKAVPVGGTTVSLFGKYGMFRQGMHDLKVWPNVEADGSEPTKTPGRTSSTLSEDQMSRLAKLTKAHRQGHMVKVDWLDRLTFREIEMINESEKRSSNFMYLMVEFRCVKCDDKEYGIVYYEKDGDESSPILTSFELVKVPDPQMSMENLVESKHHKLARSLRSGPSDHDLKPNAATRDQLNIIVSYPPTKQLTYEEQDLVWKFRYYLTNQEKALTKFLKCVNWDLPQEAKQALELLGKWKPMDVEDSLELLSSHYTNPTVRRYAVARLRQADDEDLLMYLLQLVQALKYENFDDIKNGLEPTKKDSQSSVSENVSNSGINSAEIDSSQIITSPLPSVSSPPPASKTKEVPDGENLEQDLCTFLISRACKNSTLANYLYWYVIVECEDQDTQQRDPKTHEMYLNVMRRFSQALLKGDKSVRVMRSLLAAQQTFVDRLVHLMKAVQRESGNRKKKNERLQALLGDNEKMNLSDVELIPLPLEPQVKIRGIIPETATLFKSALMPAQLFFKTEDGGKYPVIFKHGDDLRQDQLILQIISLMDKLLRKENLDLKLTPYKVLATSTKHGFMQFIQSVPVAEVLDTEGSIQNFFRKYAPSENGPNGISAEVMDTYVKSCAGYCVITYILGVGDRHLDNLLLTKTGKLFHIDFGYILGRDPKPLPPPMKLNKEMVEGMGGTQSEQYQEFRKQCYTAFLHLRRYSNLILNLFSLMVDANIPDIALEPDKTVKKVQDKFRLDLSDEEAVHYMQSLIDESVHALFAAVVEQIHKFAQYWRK

SMILES	pIC50	VPS34 Percent Inhibition
CC(=O)Nc1cc(-c2cn(-c3ccc(Cl)cc3Cl)c(-c3ccn[nH]3)n2)ccn1 [Compound I-10, N-{4-[1-(2,4-dichlorophenyl)-2-(1H-pyrazol-5-yl)-1H-imidazol-4-yl]pyridin-2-yl}acetamide]	5.52 to 6.00	27
CC(=O)Nc1cc(-c2cn(-c3ccc(Cl)cc3Cl)c(-c3ccn[nH]3)n2)c(C)cn1 [Compound I-16, N-{4-[1-(2,4-dichlorophenyl)-2-(1H-pyrazol-5-yl)-1H-imidazol-4-yl]-5-methylpyridin-2-yl}acetamide]	5.52 to 6.00	35

Further lines, results first:

pIC50	VPS34 Percent Inhibition	SMILES
5.52 to 6.00	28	CC(=O)Nc1cc(-c2nc(-c3ccc(Cl)cc3Cl)c(C(N)=O)[nH]2)ccn1 [Compound I-19, 2-(2-acetamidopyridin-4-yl)-4-(2,4-dichlorophenyl)-1H-imidazole-5-carboxamide]
> 6.52	>99	CC(=O)Nc1cc2c(ccn3c(C(N)=O)c(-c4ccc(Cl)cc4Cl)nc23)cn1 [Compound I-24, 9-acetamido-2-(2,4-dichlorophenyl)imidazo[2,1-a][2,6]naphthyridine-3-carboxamide]
6.00 to 6.52	55	CC(=O)Nc1cc(-c2cn(-c3ccccn3)c(-c3ccccc3Cl)n2)ccn1 [Compound I-105, N-{4-[2-(2-chlorophenyl)-1-(pyridin-2-yl)-1H-imidazol-4-yl]pyridin-2-yl}acetamide]
